Test results: patent US12637430B2, “Interleukin-17 (IL-17) inhibitors” (priority 2020, dated 2026)

What was measured:
[1] = biological target: T1, human IL-17A protein (Homo sapiens, UniProt Q16552); test: Inhibition of chemokine GROα/CXCL1 generation induced by human IL-17A protein in HT-29 cell; type: cell-based
T1 construct: purchased R&D 317-ILB
T1 sequence (Q16552 20-155 limits assumed): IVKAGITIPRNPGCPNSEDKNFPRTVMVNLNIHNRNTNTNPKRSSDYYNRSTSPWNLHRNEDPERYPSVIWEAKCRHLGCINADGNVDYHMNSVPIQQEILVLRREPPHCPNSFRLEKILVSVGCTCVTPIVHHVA
Method: HT-29 (Zhongyuan Gongchuang Technology Co., Ltd. of Chengdu, Sichuan) was added to a 96-well plate at 5×10^4 cells/well, and cultured overnight in a incubator at 37° C. A mixture of 30 ng/mL of human IL-17A protein (R&D, #317-ILB) and IL-17A small molecule inhibitors with gradient concentrations or 0.3 μg/mL of positive control IL-17A antibody (R&D, #AF-317-NA) was incubated at 37° C. for 1 h, and then added to the above-mentioned 96-well plate, and incubated with HT-29 cells at 37° C. for 48 hours. Then the GROα level in the cell culture supernatant was detected by an ELISA kit (Cisbio, #62HCXC1PEG) of the GROα.
According to the methods described in Experimental Examples 1 and 2, the compounds prepared in the above-mentioned examples were subjected to the experiment on inhibition of chemokine GROα/CXCL1 generation induced by human IL-17A protein in HT-29 cell.

[2] = biological target: T2, human IL-17A (Homo sapiens, UniProt Q16552); test: IL-17A enzyme-linked immunosorbent assay (competitive ELISA, IL-17A/IL-17R binding)
T2 construct: purchased Sino Biological Inc. 12047-H07B
T2 sequence (Q16552 24-155): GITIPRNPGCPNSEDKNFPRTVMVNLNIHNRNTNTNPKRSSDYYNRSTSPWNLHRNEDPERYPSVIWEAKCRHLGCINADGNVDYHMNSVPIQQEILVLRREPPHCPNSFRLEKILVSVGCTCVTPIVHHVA
Method: The inhibition of receptor-ligand binding by human IL-17A inhibitors was quantified by competitive ELISA. 0.2 μg/mL of IL-17A (Sino Biological Inc. Cat #12047-H07B) was added in a 96-well plate at 100 μl per well for incubation for 30 min under 37° C. The 96-well plate was washed with PBST (PBS, 0.05% Tween-20) at 200 μl per well for 4 times, and then added with 200 μl of 5% skim milk and placed on a shaker for incubation at 25° C. for 30 min. The compound to be tested was prepared at 100× concentration ranging from 0.003 μM to 30 μM. After washed with PBST (PBS, 0.05% Tween-20) 4 times, the plate was added with 89 μl of PBST and 1 μl of the compound to be tested at 100× concentration followed by uniformly mixing and pre-incubation at 25° C. for 10 min. Then the plate was added with 10 μl of 16 nM IL-17R, and incubated on a shaker at 25° C. for 30 min. After washed for 4 times, the plate was added with 100 μl of anti-Fc-tag horseradish peroxidase (HRP)-conjugated antibody, and incubated on a shaker at 25° C. for 30 min. After washed 4 times, the plate was added with 100 μl of 3,3′, 5,5″-tetramethylbenzidine (TMB) substrate solution, and incubated at 25° C. in the dark. Then the plate was added with 20% HCl, followed by detection of the light absorption value at a wavelength of 450 nm by a microplate reader. The compounds prepared in the above examples were tested for human IL-17A inhibitory activity according to the above method.

| Compound | IC50 [1] | IC50 [2] |
| --- | --- | --- |
| CC(C)[C@H]1COCCN1c1ccc(NC(=O)[C@@H](NC(=O)c2ccnn2C)C(C2CCC2)C2(C)CC2)cn1 (stereo partly shown) [Compound 12] | 13600 nM | 40 nM |
| CN1C(=O)C2(CCOCC2)c2ccc(NC(=O)[C@@H](NC(=O)c3ccnn3C)[C@H](c3ccccc3Cl)C3(C)CC3)cc21 [Compound 27] | 1080 nM | 104 nM |
| Cc1n[nH]c(C)c1-c1ccc(NC(=O)[C@@H](NC(=O)c2ccn(C3CC3)n2)C(C2CC2)C2CC2)cn1 [Compound 49] |  | 537 nM |
| CC1CN(C)CCN1c1ccc(NC(=O)[C@@H](NC(=O)c2ccnn2C)C(C2CCC2)C2(C)CC2)cn1 (stereo partly shown) [Compound 20] |  | 9340 nM |
| Cc1n[nH]c(C)c1-c1ccc(NC(=O)[C@@H](NC(=O)c2ccnn2C(C)C)C(C2CC2)C2CC2)cn1 [Compound 40] | 781 nM | 117 nM |
| Cc1n[nH]c(C)c1-c1ccc(NC(=O)[C@@H](NC(=O)c2ccnn2C)C(C2CCC2)C2(C)CC2)cn1 (stereo partly shown) [Compound 37] | 257 nM | 18 nM |
| Cn1nccc1C(=O)N[C@H](C(=O)Nc1ccc2c(c1)NC(=O)C21CCOCC1)[C@H](c1ccccc1Cl)C1(C)CC1 [Compound 26] | 250 nM | 96 nM |
| Cc1n[nH]c(C)c1-c1ccc(NC(=O)[C@@H](NC(=O)c2ccnn2C2CC2)C(C2CC2)C2CC2)cn1 [Compound 50] |  | 27900 nM |
| CCN1CCN(c2ccc(NC(=O)[C@@H](NC(=O)c3ccnn3C)C(C3CCC3)C3(C)CC3)cn2)[C@H](C)C1 (stereo partly shown) [Compound 21] |  | 16900 nM |
| Cc1nonc1C(=O)N[C@H](C(=O)Nc1ccc(-c2c(C)n[nH]c2C)nc1)C(C1CC1)C1CC1 [Compound 41] | 1470 nM | 1140 nM |
| Cc1n[nH]c(C)c1-c1ccc(NC(=O)[C@@H](NC(=O)c2ncnn2C)C(C2CC2)C2CC2)cn1 [Compound 47] |  | 15500 nM |
| Cn1nccc1C(=O)N[C@H](C(=O)Nc1cnc(N2CCOCC2)c(F)c1)C(C1CCC1)C1(C)CC1 (stereo partly shown) [Compound 19] | 3160 nM | 73 nM |
| Cn1nccc1C(=O)N[C@H](C(=O)Nc1ccc(C2CCOCC2)cc1)C(C1CCC1)C1(C)CC1 (stereo partly shown) [Compound 2] | 555 nM | 66 nM |
| C[C@@H]1COCCN1c1ccc(NC(=O)[C@@H](NC(=O)c2ccnn2C)C(C2CCC2)C2(C)CC2)cn1 (stereo partly shown) [Compound 10] | 7400 nM | 41 nM |
| CC[C@H]1COCCN1c1ccc(NC(=O)[C@@H](NC(=O)c2ccnn2C)C(C2CCC2)C2(C)CC2)cn1 (stereo partly shown) [Compound 14] | 7270 nM | 21 nM |
| Cc1n[nH]c(C)c1-c1ccc(NC(=O)[C@@H](NC(=O)c2ccnn2C)C(C2CC2)C2(C)CC2)cn1 (stereo partly shown) [Compound 53] | 472 nM | 55 nM |
| Cc1n[nH]c(C)c1-c1ncc(NC(=O)[C@@H](NC(=O)c2ccnn2C(C)C)C(C2CC2)C2(C)CC2)cc1F (stereo partly shown) [Compound 58] | 221 nM | 42 nM |
| Cn1nccc1C(=O)N[C@H](C(=O)Nc1ccc(N2CCOCC2C2CC2)nc1)C(C1CCC1)C1(C)CC1 (stereo partly shown) [Compound 17] |  | 136 nM |
| CC(C)N1CCN(c2ccc(NC(=O)[C@@H](NC(=O)c3ccnn3C)C(C3CCC3)C3(C)CC3)cn2)C(C)C1 (stereo partly shown) [Compound 22] |  | 13700 nM |
| Cc1n[nH]c(C)c1-c1ccc(NC(=O)[C@@H](NC(=O)c2nonc2C(C)C)C(C2CC2)C2CC2)cn1 [Compound 48] | 3030 nM | 157 nM |
| CCn1nccc1C(=O)N[C@H](C(=O)Nc1ccc(-c2c(C)n[nH]c2C)nc1)C(C1CC1)C1(C)CC1 (stereo partly shown) [Compound 54] | 238 nM | 47 nM |
| CCc1nocc1C(=O)N[C@H](C(=O)Nc1ccc(-c2c(C)n[nH]c2C)nc1)C(C1CC1)C1CC1 [Compound 42] |  | 170 nM |
| Cn1nccc1C(=O)N[C@H](C(=O)Nc1cnc(C2CCOCC2)c(F)c1)C(C1CCC1)C1(C)CC1 (stereo partly shown) [Compound 4] | 598 nM | 64 nM |

| Compound | IC50 [1] | IC50 [2] |
| --- | --- | --- |
| Cc1nonc1C(=O)N[C@H](C(=O)Nc1ccc(-c2c(C)n[nH]c2C)nc1)C(C1CC1)C1(C)CC1 (stereo partly shown) [Compound 55] | 866 nM | 53 nM |
| C[C@H]1COCCN1c1ccc(NC(=O)[C@@H](NC(=O)c2ccnn2C)C(C2CCC2)C2(C)CC2)cn1 (stereo partly shown) [Compound 11] | 10800 nM | 56 nM |
| Cc1n[nH]c(C)c1-c1ccc(NC(=O)[C@@H](NC(=O)c2ccnn2C(C)C)C(C2CC2)C2(C)CC2)cn1 (stereo partly shown) [Compound 56] | 87 nM | 35 nM |
| Cn1nccc1C(=O)N[C@H](C(=O)Nc1ccc(N2CCOCC2)nc1)C(C1CCC1)C1(C)CC1 (stereo partly shown) [Compound 8] |  | 236 nM |
| CC(C)[C@@H]1COCCN1c1ccc(NC(=O)[C@@H](NC(=O)c2ccnn2C)C(C2CCC2)C2(C)CC2)cn1 (stereo partly shown) [Compound 13] |  | 642 nM |
| Cc1n[nH]c(C)c1-c1ccc(NC(=O)[C@@H](NC(=O)c2nocc2C(C)C)C(C2CC2)C2CC2)cn1 [Compound 45] |  | 511 nM |
| Cn1nccc1C(=O)N[C@H](C(=O)Nc1ccc(N2CCOCC2)nc1)[C@H](c1ccccc1Cl)C1(C)CC1 [Compound 60] | 8020 nM | 327 nM |
| Cc1n[nH]c(C)c1-c1ccc(NC(=O)[C@@H](NC(=O)c2ccnn2C)C(C2CC2)C2CC2)cn1 [Compound 38] | 4460 nM | 385 nM |
| Cn1nccc1C(=O)N[C@H](C(=O)Nc1ccc(C(C)(C)c2nnc(C3CCC3)o2)cc1)C(C1CCC1)C1(C)CC1 (stereo partly shown) [Compound 36] |  | 1280 nM |
| Cn1nccc1C(=O)N[C@H](C(=O)Nc1ccc(N2CCOC[C@H]2CO)nc1)C(C1CCC1)C1(C)CC1 (stereo partly shown) [Compound 18] |  | 247 nM |
| C[C@@H]1CN(c2ccc(NC(=O)[C@@H](NC(=O)c3ccnn3C)C(C3CCC3)C3(C)CC3)cn2)CCO1 (stereo partly shown) [Compound 16] | 11700 nM | 100 nM |
| CCn1nccc1C(=O)N[C@H](C(=O)Nc1ccc(-c2c(C)n[nH]c2C)nc1)C(C1CC1)C1CC1 [Compound 39] | 514 nM | 128 nM |
| Cn1nccc1C(=O)N[C@H](C(=O)Nc1ccc2c(c1)NC(=O)C21CCOCC1)C(C1CCC1)C1(C)CC1 (stereo partly shown) [Compound 23] | 65 nM | 43 nM |
| Cn1nccc1C(=O)N[C@H](C(=O)Nc1ccc(C2CCOCC2)cc1)[C@H](c1ccccc1Cl)C1(C)CC1 [Compound 62] | 373 nM | 56 nM |
| CCn1nccc1C(=O)N[C@H](C(=O)Nc1cnc(-c2c(C)n[nH]c2C)c(F)c1)C(C1CC1)C1CC1 [Compound 52] | 321 nM | 98 nM |
| C[C@@H]1CN(c2ccc(NC(=O)[C@@H](NC(=O)c3ccnn3C)C(C3CCC3)C3(C)CC3)cn2)CCN1 (stereo partly shown) [Compound 24] |  | > 40000 nM |
| Cc1conc1C(=O)N[C@H](C(=O)Nc1ccc(-c2c(C)n[nH]c2C)nc1)C(C1CC1)C1CC1 [Compound 44] |  | 2780 nM |
| CCc1nonc1C(=O)N[C@H](C(=O)Nc1ccc(-c2c(C)n[nH]c2C)nc1)C(C1CC1)C1CC1 [Compound 43] |  | 457 nM |
| Cn1nccc1C(=O)N[C@H](C(=O)Nc1ccc2c(c1)NC(=O)C21CCOCC1)[C@H](c1ccccc1)C1(C)CC1 [Compound 25] | 420 nM | 32 nM |
| Cc1nocc1C(=O)N[C@H](C(=O)Nc1ccc(-c2c(C)n[nH]c2C)nc1)C(C1CC1)C1CC1 [Compound 46] | 856 nM | 111 nM |
| Cn1nccc1C(=O)N[C@H](C(=O)Nc1ccc(C2CCOCC2)cn1)C(C1CCC1)C1(C)CC1 (stereo partly shown) [Compound 3] | 1570 nM | 67 nM |
| CC[C@@H]1COCCN1c1ccc(NC(=O)[C@@H](NC(=O)c2ccnn2C)C(C2CCC2)C2(C)CC2)cn1 (stereo partly shown) [Compound 15] | 2820 nM | 49 nM |
| Cc1nonc1C(=O)N[C@H](C(=O)Nc1cnc(-c2c(C)n[nH]c2C)c(F)c1)C(C1CC1)C1(C)CC1 (stereo partly shown) [Compound 59] | 4680 nM | 87 nM |
